The source made the active and inactive calls.
Tests used:
[1] = system: BJ; experiment: cells; assay type: functional, cell-based; settings: Homo sapiens
[2] = system: BJ; experiment: cytotoxicity toward BJ-TERT fibroblasts, dose response, cell-based, RAS-independent, luminescence (AID 1933); assay type: functional; settings: Homo sapiens
[3] = system: Streptococcus; experiment: Group A Streptococcus viability loss, dose response, counter-screen for streptokinase expression inhibitor project, luminescence, BacTiterGlo (AID 1915); assay type: functional, organism-based;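 also: potency for reduction of bacterial viability or growth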
[4] = cells; assay type: functional, cell-based
[5] = biological target: T1, Beta-galactosidase (Escherichia coli, UniProt Q8VNN2); assay type: functional
[6] = Luminescence Cell-Based Dose Response HTS to Identify Inhibitors of 5'UTR Stem-Loop Driven Prion Protein mRNA Translation in H4 Neuroglioblastoma Cells. [Related pubchem assays: 1827 (Project Summary), 1813 (Primary HTS)]; assay type: functional
[7] = biological target: T2, Kappa-type opioid receptor (Homo sapiens, UniProt P41145); assay type: functional
[8] = inhibitors of firefly luciferase expression or activity, dose response, H4 neuroglioma cells, luminescence (AID 1990); assay type: functional, cell-based
[9] = system: Vero; experiment: cells; assay type: functional; settings: Chlorocebus sabaeus
[10] = system: INS1; experiment: beta cell apoptosis inhibitors, cytokine rescue, dose response, luminescence, retest (AID 449756); assay type: functional, cell-based; settings: Rattus norvegicus;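 also: cell death triggered by IL-1 beta plus TNF-alpha plus IFN-gamma mixture; protective hits raise ATP signal compared with cytokine alone wells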
[11] = system: BJ; experiment: cytotoxicity toward Ras-transformed BJeLR fibroblasts, dose response, cell-based, alamar blue fluorescence, cherrypicked samples (AID 2631); assay type: functional; settings: Homo sapiens;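 also: confirmatory dose-response assay in RAS-dependent BJ fibroblasts engineered with TERT, LT and ST, with cytotoxicity read by fluorescence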
[12] = biological target: T2, Kappa-type opioid receptor; assay type: functional; remark: listed apart in the source
[13] = cytotoxicity toward DRD oncogenic fibroblasts, dose response, cell-based, non-viral oncogenic, luminescence (AID 1934); assay type: functional; settings: Homo sapiens
[14] = system: Streptococcus sp. 'group A'; experiment: growth inhibition of control SK(-) GAS strain, dose response, counter-screen for streptokinase expression inhibitor project, luminescence, kanamycin, BacTiterGlo, confirmation (AID 1900); assay type: functional, organism-based
[15] = system: BJ; experiment: cytotoxicity toward BJ-TERT-LT-ST fibroblasts, dose response, cell-based, RAS-independent, luminescence (AID 1935); assay type: functional; settings: Homo sapiens;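 also: BJ fibroblasts immortalized with TERT plus LT and ST oncogenes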
[16] = inhibitors of SNCA 5'UTR-driven reporter translation, confirmation, H4 neuroglioma cells, luminescence (AID 1988); assay type: functional, cell-based
[17] = cells; assay type: functional, cell-based; remark: listed apart in the source
[18] = system: Vero; experiment: cells; assay type: functional, cell-based; settings: Chlorocebus sabaeus
[19] = biological target: T3, Nucleotide-binding oligomerization domain-containing protein 1 (Homo sapiens, UniProt Q9Y239); experiment: NOD1 signaling inhibitors, SAR follow-up, revised (AID 2333); assay type: functional
T3 sequence (Q9Y239 whole entry): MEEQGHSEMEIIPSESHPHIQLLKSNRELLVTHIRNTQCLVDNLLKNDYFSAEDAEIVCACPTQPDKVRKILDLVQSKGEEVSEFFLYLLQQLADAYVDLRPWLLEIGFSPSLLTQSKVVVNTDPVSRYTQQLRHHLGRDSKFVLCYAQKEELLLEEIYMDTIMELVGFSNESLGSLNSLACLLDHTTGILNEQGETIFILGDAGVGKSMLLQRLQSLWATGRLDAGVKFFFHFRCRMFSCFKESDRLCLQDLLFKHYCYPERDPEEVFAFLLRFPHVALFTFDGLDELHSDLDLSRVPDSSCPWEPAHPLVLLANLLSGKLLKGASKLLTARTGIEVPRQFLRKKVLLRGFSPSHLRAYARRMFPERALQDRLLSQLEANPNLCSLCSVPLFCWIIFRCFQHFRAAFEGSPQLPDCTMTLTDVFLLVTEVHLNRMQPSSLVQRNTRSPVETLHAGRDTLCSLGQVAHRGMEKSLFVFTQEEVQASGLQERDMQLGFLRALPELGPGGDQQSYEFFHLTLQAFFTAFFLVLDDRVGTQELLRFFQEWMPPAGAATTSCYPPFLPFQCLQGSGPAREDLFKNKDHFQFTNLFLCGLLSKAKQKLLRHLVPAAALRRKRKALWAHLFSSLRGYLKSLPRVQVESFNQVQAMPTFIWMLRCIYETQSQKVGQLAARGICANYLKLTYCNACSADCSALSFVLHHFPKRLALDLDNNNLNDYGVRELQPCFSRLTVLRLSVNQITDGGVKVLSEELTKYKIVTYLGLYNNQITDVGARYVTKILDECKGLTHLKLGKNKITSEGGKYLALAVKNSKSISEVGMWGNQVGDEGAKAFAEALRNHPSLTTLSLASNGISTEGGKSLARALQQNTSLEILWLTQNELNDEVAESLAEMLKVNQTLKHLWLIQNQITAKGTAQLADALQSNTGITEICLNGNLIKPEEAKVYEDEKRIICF

[20] = biological target: Nucleotide-binding oligomerization domain-containing protein 2 (Homo sapiens, UniProt Q9HC29); experiment: PubChem AID 2334; assay type: functional
[21] = system: HEK293; experiment: cells; settings: Homo sapiens;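 also: cells exposed to compound for 14 hours overnight before viability readout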
[22] = biological target: Tumor necrosis factor (Homo sapiens, UniProt P01375); experiment: TNFa-triggered NF-kB activation inhibitors, SAR follow-up, cell-based, revised (AID 2337); assay type: functional
[23] = ADAM10 protease inhibitors, dose response, selectivity assay for ADAM17 exosite inhibitor project, biochemical, FRET peptide substrate, recombinant human ADAM10 (AID 743259);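 also: ADAM10 enzyme cleaving a FRET peptide substrate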
[24] = biological target: CAAX prenyl protease 2 (Saccharomyces cerevisiae S288c, UniProt Q03530); assay type: biochemical
[25] = HEp-2 cell cytotoxicity, dose response, cytotoxicity control for RSV inhibitor project, HTS (AID 2410); assay type: functional; settings: human respiratory syncytial virus
[26] = biological target: Disintegrin and metalloproteinase domain-containing protein 17 (Homo sapiens, UniProt P78536); experiment: exosite inhibitors of ADAM17, dose response, biochemical (AID 743260)
[27] = biological target: T4, CAAX prenyl protease 2 (Homo sapiens, UniProt Q9Y256); experiment: human Rce1 protease inhibitors, dose response, biochemical, yeast membranes, quenched-peptide fluorescence, cherry-pick (AID 588849)
T4 sequence (Q9Y256 whole entry): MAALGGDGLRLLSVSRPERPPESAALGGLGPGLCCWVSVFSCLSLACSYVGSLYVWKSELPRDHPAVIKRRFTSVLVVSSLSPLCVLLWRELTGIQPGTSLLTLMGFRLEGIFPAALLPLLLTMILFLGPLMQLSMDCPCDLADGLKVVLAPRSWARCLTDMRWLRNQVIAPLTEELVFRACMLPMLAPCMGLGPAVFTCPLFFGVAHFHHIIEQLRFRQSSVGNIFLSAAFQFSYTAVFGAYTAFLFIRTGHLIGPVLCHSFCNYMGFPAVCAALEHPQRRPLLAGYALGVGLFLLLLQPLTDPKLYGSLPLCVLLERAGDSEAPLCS

[28] = biological target: DNA dC->dU-editing enzyme APOBEC-3G (Homo sapiens, UniProt Q9HC16); experiment: Dose Response confirmation of small molecule APOBEC3G DNA Deaminase Inhibitors via a fluorescence-based single-stranded DNA deaminase assay. [Related pubchem assays (depositor defined):AID493012, AID493028]; assay type: functional
[29] = biological target: DNA dC->dU-editing enzyme APOBEC-3A (Homo sapiens, UniProt P31941); experiment: APOBEC3A DNA deaminase inhibitors, dose response, biochemical (AID 504722); assay type: functional
[30] = biological target: Melanocortin receptor 4 (Homo sapiens, UniProt P32245); experiment: MC4R antagonist potency on cAMP, dose response, cell-based, TR-FRET, biased antagonists (AID 602298); assay type: functional;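 also: antagonist potency against agonist-stimulated cAMP production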
[31] = HepG2 cell cytotoxicity, dose response, cytotoxicity control for Shn3 inhibitor project, CellTiter-Glo, cherry-picked (AID 624134); assay type: functional, cell-based
[32] = Shn3 3'UTR reporter inhibitors, dose response, cell-based, Clone20 osteoblasts, firefly luciferase, cherry-picked (AID 624132); assay type: functional;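 also: firefly luciferase luminescence from reporter carrying the Shn3 3'UTR in osteoblasts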
[33] = inhibitors of PGC1a acetylation in cells, dose response, cell-based, cherry-picked samples (AID 720514); assay type: functional;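 also: potency may reflect raised or lowered acetylation signal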
[34] = biological target: T1, Beta-galactosidase; experiment: beta-galactosidase enzyme inhibitors and activators, dose response, artefact control for CCR6 antagonist project, biochemical, E. coli enzyme, set 3 (AID 504712); assay type: functional
[35] = nonselective inhibitors of cellular cAMP signaling, dose response, counter-screen for MC4R biased antagonist project, cell-based, TR-FRET cAMP detection (AID 602305); assay type: functional;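 also: U2OS cells stimulated with forskolin near its EC80 as the cAMP inducer; potency is for inhibition of forskolin-stimulated cAMP signaling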
[36] = control 3'UTR Renilla luciferase suppression, dose response, counter-screen for Shn3 inhibitor project, cell-based, Clone20-Shn3RL, cherry-picked (AID 624133); assay type: functional
[37] = biological target: Photoreceptor-specific nuclear receptor (Homo sapiens, UniProt Q9Y5X4); assay type: functional, cell-based;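 also: CHO-S cells with Gal4-NCOR and VP16-NR2E3 two-hybrid luciferase reporter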
Photoreceptor-specific nuclear receptor, sequence (Q9Y5X4 whole entry, the tested form may be a part): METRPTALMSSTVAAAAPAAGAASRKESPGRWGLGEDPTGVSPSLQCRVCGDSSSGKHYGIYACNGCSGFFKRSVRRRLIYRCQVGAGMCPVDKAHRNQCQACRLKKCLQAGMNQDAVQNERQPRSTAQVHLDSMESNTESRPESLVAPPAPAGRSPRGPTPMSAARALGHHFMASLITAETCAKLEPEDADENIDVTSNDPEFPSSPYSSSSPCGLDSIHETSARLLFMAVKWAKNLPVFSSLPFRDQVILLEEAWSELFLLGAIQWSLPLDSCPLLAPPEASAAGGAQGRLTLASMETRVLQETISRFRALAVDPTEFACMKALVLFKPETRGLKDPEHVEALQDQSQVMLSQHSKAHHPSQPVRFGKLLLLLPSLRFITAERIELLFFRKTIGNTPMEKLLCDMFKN

T1 sequence (Q8VNN2 whole entry): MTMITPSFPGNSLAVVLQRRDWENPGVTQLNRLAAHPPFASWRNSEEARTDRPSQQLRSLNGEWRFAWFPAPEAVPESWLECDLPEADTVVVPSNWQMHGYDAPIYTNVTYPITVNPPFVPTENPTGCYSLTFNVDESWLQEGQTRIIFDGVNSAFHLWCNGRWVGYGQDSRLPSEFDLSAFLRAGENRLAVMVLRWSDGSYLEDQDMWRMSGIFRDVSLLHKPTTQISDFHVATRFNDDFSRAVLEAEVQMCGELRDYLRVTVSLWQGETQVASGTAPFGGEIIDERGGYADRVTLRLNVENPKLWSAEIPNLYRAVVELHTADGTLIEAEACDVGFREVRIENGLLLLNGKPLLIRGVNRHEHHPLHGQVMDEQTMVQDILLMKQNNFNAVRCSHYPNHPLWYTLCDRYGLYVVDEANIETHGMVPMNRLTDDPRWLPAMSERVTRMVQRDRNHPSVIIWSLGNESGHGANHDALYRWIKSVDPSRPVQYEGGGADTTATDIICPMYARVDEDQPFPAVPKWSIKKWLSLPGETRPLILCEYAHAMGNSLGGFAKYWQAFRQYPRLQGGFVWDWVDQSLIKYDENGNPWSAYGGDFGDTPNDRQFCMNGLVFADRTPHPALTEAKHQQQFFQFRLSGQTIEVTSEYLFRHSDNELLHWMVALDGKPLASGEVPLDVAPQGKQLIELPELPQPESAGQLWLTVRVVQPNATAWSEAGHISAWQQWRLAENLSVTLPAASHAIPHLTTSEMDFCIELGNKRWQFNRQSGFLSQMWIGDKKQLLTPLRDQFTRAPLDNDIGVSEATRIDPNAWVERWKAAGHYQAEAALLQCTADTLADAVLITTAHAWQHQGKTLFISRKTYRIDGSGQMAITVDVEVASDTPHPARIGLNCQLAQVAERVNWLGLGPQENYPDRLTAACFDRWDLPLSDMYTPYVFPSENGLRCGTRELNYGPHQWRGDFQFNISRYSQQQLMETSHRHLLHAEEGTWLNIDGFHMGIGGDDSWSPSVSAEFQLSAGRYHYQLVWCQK
T2 sequence (P41145 whole entry): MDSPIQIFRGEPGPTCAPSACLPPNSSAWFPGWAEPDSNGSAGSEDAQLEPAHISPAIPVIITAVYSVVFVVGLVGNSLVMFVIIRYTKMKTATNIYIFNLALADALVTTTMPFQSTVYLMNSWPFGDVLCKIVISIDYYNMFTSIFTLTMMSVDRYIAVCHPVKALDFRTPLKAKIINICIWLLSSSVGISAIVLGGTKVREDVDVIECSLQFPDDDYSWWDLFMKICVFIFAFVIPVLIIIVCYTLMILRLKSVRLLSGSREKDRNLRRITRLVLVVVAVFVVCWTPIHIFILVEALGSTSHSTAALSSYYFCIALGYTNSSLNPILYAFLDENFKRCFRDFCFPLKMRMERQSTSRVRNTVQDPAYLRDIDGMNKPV
Melanocortin receptor 4, sequence (P32245 whole entry): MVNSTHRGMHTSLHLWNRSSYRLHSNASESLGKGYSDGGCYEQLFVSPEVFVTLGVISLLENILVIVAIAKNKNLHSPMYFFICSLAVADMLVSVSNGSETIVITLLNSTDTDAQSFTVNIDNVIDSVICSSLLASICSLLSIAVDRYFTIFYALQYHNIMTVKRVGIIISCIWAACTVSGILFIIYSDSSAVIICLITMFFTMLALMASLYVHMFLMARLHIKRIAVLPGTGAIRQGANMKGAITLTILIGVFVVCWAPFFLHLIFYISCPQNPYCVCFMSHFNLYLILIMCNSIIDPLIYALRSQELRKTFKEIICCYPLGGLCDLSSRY
Disintegrin and metalloproteinase domain-containing protein 17, sequence (P78536 whole entry, the tested form may be a part): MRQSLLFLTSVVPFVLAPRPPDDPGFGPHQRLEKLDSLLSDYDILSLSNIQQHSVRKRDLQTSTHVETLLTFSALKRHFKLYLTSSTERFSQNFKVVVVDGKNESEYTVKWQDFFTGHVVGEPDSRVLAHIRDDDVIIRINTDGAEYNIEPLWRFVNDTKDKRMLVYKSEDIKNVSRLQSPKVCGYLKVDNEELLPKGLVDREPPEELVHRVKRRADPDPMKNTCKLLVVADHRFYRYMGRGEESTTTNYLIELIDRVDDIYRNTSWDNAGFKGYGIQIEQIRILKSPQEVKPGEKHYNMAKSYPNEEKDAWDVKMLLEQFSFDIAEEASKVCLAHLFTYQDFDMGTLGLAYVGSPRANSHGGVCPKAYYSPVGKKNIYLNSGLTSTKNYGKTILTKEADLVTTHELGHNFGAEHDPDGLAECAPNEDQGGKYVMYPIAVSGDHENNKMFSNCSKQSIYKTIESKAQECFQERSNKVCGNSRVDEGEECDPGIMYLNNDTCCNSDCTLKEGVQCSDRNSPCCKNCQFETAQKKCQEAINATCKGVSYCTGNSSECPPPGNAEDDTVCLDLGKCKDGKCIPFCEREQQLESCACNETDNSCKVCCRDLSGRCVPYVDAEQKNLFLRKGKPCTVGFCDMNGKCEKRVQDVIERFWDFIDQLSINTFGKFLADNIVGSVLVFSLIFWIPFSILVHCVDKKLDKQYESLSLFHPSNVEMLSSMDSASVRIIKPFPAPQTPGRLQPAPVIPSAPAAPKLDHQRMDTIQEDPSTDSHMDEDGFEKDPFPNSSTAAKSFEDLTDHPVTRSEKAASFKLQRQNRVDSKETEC
CAAX prenyl protease 2 (Saccharomyces cerevisiae S288c, UniProt Q03530), sequence (Q03530 whole entry): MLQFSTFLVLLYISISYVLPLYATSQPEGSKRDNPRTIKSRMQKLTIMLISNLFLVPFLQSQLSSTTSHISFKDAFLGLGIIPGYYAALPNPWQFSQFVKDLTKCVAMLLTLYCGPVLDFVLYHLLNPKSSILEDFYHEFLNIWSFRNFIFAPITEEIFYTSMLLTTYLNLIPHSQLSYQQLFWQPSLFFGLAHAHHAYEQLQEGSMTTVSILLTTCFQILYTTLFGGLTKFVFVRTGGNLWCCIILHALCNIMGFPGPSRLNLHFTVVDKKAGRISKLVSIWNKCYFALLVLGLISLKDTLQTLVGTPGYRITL
DNA dC->dU-editing enzyme APOBEC-3A, sequence (P31941 whole entry): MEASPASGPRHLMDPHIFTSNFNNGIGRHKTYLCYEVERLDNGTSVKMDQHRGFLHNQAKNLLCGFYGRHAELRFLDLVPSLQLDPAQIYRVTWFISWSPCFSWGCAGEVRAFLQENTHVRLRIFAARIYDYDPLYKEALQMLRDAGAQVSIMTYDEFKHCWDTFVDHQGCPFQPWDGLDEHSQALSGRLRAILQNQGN
Tumor necrosis factor, sequence (P01375 whole entry): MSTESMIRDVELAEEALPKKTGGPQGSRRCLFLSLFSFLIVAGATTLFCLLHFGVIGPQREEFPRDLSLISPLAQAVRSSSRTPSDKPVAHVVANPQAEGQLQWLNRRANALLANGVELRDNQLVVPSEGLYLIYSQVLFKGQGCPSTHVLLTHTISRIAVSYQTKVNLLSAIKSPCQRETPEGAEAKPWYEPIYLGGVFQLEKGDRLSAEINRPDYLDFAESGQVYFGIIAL
Nucleotide-binding oligomerization domain-containing protein 2, sequence (Q9HC29 whole entry, the tested form may be a part): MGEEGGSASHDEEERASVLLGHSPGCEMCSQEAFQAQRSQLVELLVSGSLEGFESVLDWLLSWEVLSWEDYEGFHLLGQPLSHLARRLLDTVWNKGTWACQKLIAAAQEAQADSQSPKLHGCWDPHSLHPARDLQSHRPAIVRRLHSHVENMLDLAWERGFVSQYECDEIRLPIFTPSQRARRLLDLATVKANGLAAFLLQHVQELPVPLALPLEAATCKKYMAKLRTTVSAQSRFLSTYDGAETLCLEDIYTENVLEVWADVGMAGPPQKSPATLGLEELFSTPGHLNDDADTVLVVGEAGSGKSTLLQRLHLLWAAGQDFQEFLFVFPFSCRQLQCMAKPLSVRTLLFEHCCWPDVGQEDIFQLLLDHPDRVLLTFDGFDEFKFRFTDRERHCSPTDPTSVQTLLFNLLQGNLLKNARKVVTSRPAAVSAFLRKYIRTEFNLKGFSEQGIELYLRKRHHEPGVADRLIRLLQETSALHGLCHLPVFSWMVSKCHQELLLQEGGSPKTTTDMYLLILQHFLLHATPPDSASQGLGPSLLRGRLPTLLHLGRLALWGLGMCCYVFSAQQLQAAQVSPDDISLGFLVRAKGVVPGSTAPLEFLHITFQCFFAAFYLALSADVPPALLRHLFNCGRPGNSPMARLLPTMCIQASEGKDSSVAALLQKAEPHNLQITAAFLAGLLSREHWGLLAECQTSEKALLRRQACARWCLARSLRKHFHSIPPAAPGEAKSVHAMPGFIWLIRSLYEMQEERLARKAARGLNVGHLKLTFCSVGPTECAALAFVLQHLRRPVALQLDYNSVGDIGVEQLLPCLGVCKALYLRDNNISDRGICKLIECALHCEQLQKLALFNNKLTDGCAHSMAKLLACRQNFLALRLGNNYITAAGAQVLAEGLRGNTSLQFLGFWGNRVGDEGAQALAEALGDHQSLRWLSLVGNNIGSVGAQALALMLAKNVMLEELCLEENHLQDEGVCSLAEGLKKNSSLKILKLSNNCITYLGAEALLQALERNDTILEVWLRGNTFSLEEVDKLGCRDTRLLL

Cc1ccccc1N=Nc1ccc(O)c2ncccc12
EC50 [1]: 15.1 µM (inconclusive) | EC50 [2]: 10.4 µM (inconclusive) | EC50 [3]: 0.437 µM (active) | EC50 [4]: 7.93 µM (active) | EC50 [5]: 30.1 µM (active) | EC50 [6]: 2.89 µM (active) | IC50 [7]: > 32 µM | EC50 [8]: 5.81 µM (active) | CC50 [9]: 5.63 µM (active) | AC50 [10]: 1.65 µM (active) | EC50 [11]: 0.677 µM (active) | IC50 [12]: 4.11 µM (active) | EC50 [13]: 12.7 µM (active) | EC50 [14]: < 0.06 µM (active) | EC50 [15]: 6.64 µM (inconclusive) | EC50 [16]: 2.03 µM (active) | EC50 [17]: 46.8 µM (active) | IC50 [18]: > 25 µM (active)

N#C/C(=C(/O)COC(=O)CSc1ccc2ccccc2c1)c1nc2ccccc2[nH]1
IC50 [19]: > 20 µM (inactive) | IC50 [20]: > 20 µM (inactive) | IC50 [21]: > 20 µM (inactive) | IC50 [22]: > 20 µM (inactive)

CCO[C@H]1OC(C(=O)Nc2ccccc2)=C[C@@H](c2csc3ccccc23)[C@@H]1CCCO
IC50 [23]: 11.2 µM (inactive) | AC50 [24]: 17.5 µM (active) | CC50 [25]: 18.7 µM (active) | IC50 [26]: > 69.5 µM (inactive) | AC50 [27]: 0.183 µM (active)

CCOc1ccc(N)c(SSc2cc(OCC)ccc2N)c1
IC50 [28]: 17.1 µM (active) | IC50 [29]: > 100 µM (inactive)

O=S(=O)(/C(=C\c1ccc(C(F)(F)F)cc1)c1nc2ccccc2[nH]1)c1ccccc1
IC50 [30]: 9.39 µM (active) | AC50 [31]: 6.49 µM (active) | AC50 [32]: 1.85 µM (active) | AC50 [33]: 3.11 µM (active) | IC50 [34]: > 66.6 µM (inactive) | IC50 [35]: > 64.6 µM (inactive) | AC50 [36]: < 0.5 µM (active) | IC50 [37]: 4.42 µM (active)

— ChEMBL document CHEMBL1201862, “PubChem BioAssay data set” (2004)
